Assay results taken from ChEMBL document CHEMBL4359836, “Synthesis and Biological Assessment of Pyrrolobenzoxazine Scaffold as a Potent Antioxidant” (J Med Chem, 2019).
Calls of active or inactive are those of the source. The calls are words filed in the database; no cut-off is given here.

Columns and labels:
[1] = system: Mitochondria; test: Antioxidant activity in goat cardiac mitochondria assessed as inhibition of CuCl2/ascorbic acid-induced manganese superoxide dismutase at 8.25 uM after 1 hr by pyrogallol autoxidation method relative to control; type: functional, subcellular; details: Capra hircus, Heart, Mitochrondria
[2] = Antioxidant activity in pH 7.4 potassium phosphate buffer assessed as CuCl2/ascorbic acid induced hydroxyl radical scavenging activity by measuring deoxyribose degradation product formation after 20 mins by thiobarbituric acid based absorbance analysis; type: functional
[3] = Pro-oxidant activity in pH 7.4 potassium phosphate buffer assessed as reduction in CuCl2/ascorbic acid induced hydroxyl radical scavenging activity at > 66 uM in presence of deoxyribose by measuring deoxyribose degradation product formation after 20 mins by thiobarbituric acid based absorbance analysis
[4] = Antioxidant activity in pH 7.4 phosphate buffer assessed as DPPH radical scavenging activity after 30 mins by spectrophotometric analysis; type: functional
[5] = Reducing power of the compound assessed as reducing Fe3+ power at 80 uM using K3Fe(CN)6 in pH 6.6 phosphate buffer after 20 mins by spectrophotometric analysis
[6] = Antioxidant activity in pH 7.4 potassium phosphate buffer assessed as CuCl2/ascorbic acid induced hydroxyl radical scavenging activity by measuring trolox equivalent antioxidant capacity by measuring IC50 Trolox/IC50 test compound ratio in presence of deoxyribose by thiobarbituric acid based absorbance analysis; type: functional
[7] = Antioxidant activity in pH 7.4 phosphate buffer assessed as DPPH radical scavenging activity by measuring trolox equivalent antioxidant capacity by measuring IC50 Trolox/IC50 test compound ratio after 30 mins by spectrophotometric analysis; type: functional
[8] = system: Mitochondria; test: Antioxidant activity in goat cardiac mitochondria assessed as inhibition of CuCl2/ascorbic acid-induced protein carbonyl content at 33 uM after 1 hr by DNPH assay relative to control; type: functional, subcellular; details: Capra hircus, Heart, Mitochrondria
[9] = system: Mitochondria; test: Antioxidant activity in goat cardiac mitochondria assessed as inhibition of CuCl2/ascorbic acid-induced protein carbonyl content at 66 uM after 1 hr by DNPH assay relative to control; type: functional, subcellular; details: Capra hircus, Heart, Mitochrondria
[10] = system: Mitochondria; test: Antioxidant activity in goat cardiac mitochondria assessed as inhibition of CuCl2/ascorbic acid-induced manganese superoxide dismutase at 66 uM after 1 hr by pyrogallol autoxidation method relative to control; type: functional, subcellular; details: Capra hircus, Heart, Mitochrondria
[11] = system: Mitochondria; test: Antioxidant activity in goat cardiac mitochondria assessed as inhibition of CuCl2/ascorbic acid-induced manganese superoxide dismutase after 1 hr by pyrogallol autoxidation method; type: functional, subcellular; details: Capra hircus; Heart; Mitochrondria
[12] = system: Mitochondria; test: Antioxidant activity in goat cardiac mitochondria assessed as reversal of CuCl2/ascorbic acid-induced reduction in GSH level at 8.25 uM after 1 hr by DTNB reagent based method (reference value: 75.89%); type: functional, subcellular; set-up: scale not given: the % may be the effect or the level left; details: Capra hircus, Heart, Mitochrondria
[13] = system: Mitochondria; test: Antioxidant activity in goat cardiac mitochondria assessed as reversal of CuCl2/ascorbic acid-induced reduction in GSH level at 16.5 uM after 1 hr by DTNB reagent based method relative to control; type: functional, subcellular; details: Capra hircus, Heart, Mitochrondria
[14] = system: Mitochondria; test: Antioxidant activity in goat cardiac mitochondria assessed as reversal of CuCl2/ascorbic acid-induced reduction in PDH level at 16.5 uM using sodium pyruvate as substrate after 1 hr spectrophotometric analysis (reference value: 66.25%); type: functional, subcellular; set-up: scale not given: the % may be the effect or the level left; details: Capra hircus, Heart, Mitochrondria
[15] = system: Mitochondria; test: Antioxidant activity in goat cardiac mitochondria assessed as reversal of CuCl2/ascorbic acid-induced reduction in PDH level at 66 uM using sodium pyruvate as substrate after 1 hr by spectrophotometric analysis relative to control; type: functional, subcellular; details: Capra hircus, Heart, Mitochrondria
[16] = system: Mitochondria; test: Antioxidant activity in goat cardiac mitochondria assessed as reversal of CuCl2/ascorbic acid-induced reduction in ICDH level at 16.5 uM using isocitrate as substrate after 1 hr (reference value: 65.58%); type: functional, subcellular; set-up: scale not given: the % may be the effect or the level left; details: Capra hircus, Heart, Mitochrondria
[17] = system: Mitochondria; test: Antioxidant activity in goat cardiac mitochondria assessed as reversal of CuCl2/ascorbic acid-induced reduction in alpha-KGDH level at 66 uM using alpha-ketoglutarate as substrate after 1 hr relative to control; type: functional, subcellular; details: Capra hircus, Heart, Mitochrondria
[18] = system: Mitochondria; test: Antioxidant activity in goat cardiac mitochondria assessed as reversal of CuCl2/ascorbic acid-induced reduction in SDH level at 16.5 uM using succinate as substrate after 1 hr by spectrophotometric analysis relative to control; type: functional, subcellular; details: Capra hircus, Heart, Mitochrondria
[19] = system: Mitochondria; test: Antioxidant activity in goat cardiac mitochondria assessed as reversal of CuCl2/ascorbic acid-induced reduction in SDH level at 33 uM using succinate as substrate after 1 hr by spectrophotometric analysis relative to control; type: functional, subcellular; details: Capra hircus, Heart, Mitochrondria
[20] = system: Mitochondria; test: Antioxidant activity in goat cardiac mitochondria assessed as reversal of CuCl2/ascorbic acid-induced reduction in SDH level at 66 uM using succinate as substrate after 1 hr by spectrophotometric analysis relative to control; type: functional, subcellular; details: Capra hircus, Heart, Mitochrondria
[21] = Effect on PDH levels in goat cardiac mitochondria at 8.25 to 66 uM using sodium pyruvate as substrate after 1 hr by spectrophotometric analysis; type: ADME, subcellular, Capra hircus, Heart, Mitochrondria
[22] = Inhibition of ICDH in goat cardiac mitochondria assessed as effect on Vmax at 66 uM using isocitrate as substrate after 1 hr by Lineweaver-Burk double reciprocal plot analysis; set-up: species or system Capra hircus, Heart
[23] = species on record: Capra hircus; test: Effect on ICDH in goat cardiac mitochondria assessed as reversal of CuCl2/ascorbic acid induced reduction in Km at 66 uM using isocitrate as substrate after 1 hr by Lineweaver-Burk double reciprocal plot analysis; details: Heart
[24] = species on record: Capra hircus; test: Effect on alpha-ketoglutarate dehydrogenase in goat cardiac mitochondria assessed as reversal of CuCl2/ascorbic acid induced reduction in Vmax at 66 uM using alpha-ketoglutarate as substrate by Lineweaver-Burk double reciprocal plot analysis; details: Heart
[25] = system: Mitochondria; test: (§1) Protective activity against CuCl2/ascorbic acid-induced apoptotic alteration in goat cardiac mitochondria assessed as reversal of CuCl2/ascorbic acid-induced reduction in cytochrome c oxidoreductase activity at 8.25 uM incubated for 1 hr and measured at 10 secs time interval for 90 secs by spectrophotometric analysis (reference value: 47.82%); type: functional, subcellular; set-up: scale not given: the % may be the effect or the level left; details: Capra hircus, Heart, Mitochrondria
[26] = system: Mitochondria; test: as §1, with “33” for “8.25”, “uM” for “uM incubated for 1 hr and”; type: functional, subcellular; set-up: scale not given: the % may be the effect or the level left; details: Capra hircus, Heart, Mitochrondria
[27] = system: Mitochondria; test: Protective activity against CuCl2/ascorbic acid-induced apoptotic alteration in goat cardiac mitochondria assessed as reversal of CuCl2/ascorbic acid-induced reduction in cytochrome c oxidase activity incubated for 1 hr and measured at 10 secs time interval for 90 secs by spectrophotometric analysis; type: functional, subcellular; details: Capra hircus; Heart; Mitochrondria
[28] = system: Mitochondria; test: as §1, with “oxidase” for “oxidoreductase”, “uM” for “uM incubated for 1 hr”, “72.41%)” for “47.82%)”; type: functional, subcellular; set-up: scale not given: the % may be the effect or the level left; details: Capra hircus, Heart, Mitochrondria
[29] = Effect on cytochrome c oxidoreductase activity in goat cardiac mitochondria at 8.25 to 66 uM incubated for 1 hr and measured at 10 secs time interval for 90 secs by spectrophotometric analysis; type: ADME, subcellular, Capra hircus, Heart, Mitochrondria
[30] = system: Mitochondria; test: Protective activity in goat cardiac mitochondria assessed as inhibition of CuCl2/ascorbic acid-induced convoluted membranes at 66 uM incubated for 1 hr by scanning electron microscopy; type: functional, subcellular; details: Capra hircus, Heart, Mitochrondria
[31] = Induction of structural distortion in goat cardiac mitochondria at 66 uM after 1 hr by scanning electron microscopy; type: subcellular, Capra hircus, Heart, Mitochrondria
[32] = Binding affinity to Cu2+ assessed as decrease in heat change at 66 uM in presence of CuCl2 by isothermal titration calorimetry
[33] = Binding affinity to Cu2+ assessed as binding constant K1 at 66 uM in presence of CuCl2 by isothermal titration calorimetry
[34] = Binding affinity to Cu2+ assessed as binding constant K4 at 66 uM in presence of CuCl2 by isothermal titration calorimetry

Question: Which results are given for `CCOC(=O)c1c(-c2ccc(O)c(OC)c2)cn2c1c(=O)oc1ccccc12`?
Answer: inhibition [1]: 25.7%; Activity [2]: Dose-dependent effect; IC50 [2]: 11 µM; MEC [2]: 66 µM; Activity [3]: Active; Activity [4]: Dose-dependent effect; IC50 [4]: 46.4 µM; MEC [4]: 66 µM; Activity [5]: Dose-dependent effect; Ratio IC50 [6]: 0.9; Ratio IC50 [7]: 0.78; inhibition [8]: 64.8%; inhibition [9]: 72.1%; inhibition [10]: 60.9%; Activity [11]: Dose-dependent effect; Activity [12]: 79.6%; fold change (FC) [13]: 3.06; Activity [14]: 94.5%; fold change (FC) [15]: 3.82; Activity [16]: 75.5%; fold change (FC) [17]: 4.62; fold change (FC) [18]: 2.08; fold change (FC) [19]: 3.06; fold change (FC) [20]: 5; Activity [21]: Non-Toxic; inhibition (INH) [22]: Not Active; Activity [23]: Active; Activity [24]: Active; Activity [25]: 23.5%; Activity [26]: 49.8%; Activity [27]: Dose-dependent effect; Activity [28]: 56.2%; Activity [29]: Non-Toxic; Activity [30]: Active; Activity [31]: Non-Toxic; Activity [32]: Active; K [33]: 8.37 ×10⁴ /M; K [34]: 9 ×10⁴ /M
